Data on one compound can be found in patent US20100144749A1, “TREATMENT OF CANCERS WITH ACQUIRED RESISTANCE TO KIT INHIBITORS” (priority 2005, published 2010).

Common to all, as to type: cell-based, murine
In assay [1] the test system is Ba/F3 cells expressing human c-KIT with exon 11 deletion of residues 557-558. The assay can be described thus: Cell proliferation assay (CellTiter-Glo), Ba/F3 c-KIT exon 11 deletion mutant. Conditions: BaF3; Ba/F3, c-KIT exon 11 del 557-558; 72 h; dose range 0.6 to 10,000 nM; mean of at least three experiments; read-out: IC50 of cell proliferation inhibition, Exon 11 (WT). As for the experimental part:
(§1) All mutations were confirmed by DNA sequencing.
(§2) Selective pressure was applied to the transfected cells by removing IL-3 from the culture medium. After IL-independent populations, further selective pressure was applied by also growing the cells in the presence of 1 mg/mL G418. […] The stable pools were further characterized by sequencing genomic DNA to confirm the presence of the transfected c-KIT cDNA.
(§3) This assay utilizes cellular ATP as a marker for cell proliferation/viability. […] Plates were then incubated in a 5% CO2 incubator at 37° C. for 3 days. After 72 h, 100 microliters of lysis/luciferase reagent (CellTiter-Glo, Promega G7573) was added to each well. The cells were then incubated on a shaker for 5 minutes at room temperature, and luminescence was measured on a Victor 5 (Perkin Elmer) spectrophotometer. Growth inhibition was measured by comparing luminescence signal from treated vs. untreated cells in assay plates, and the IC50 analysis of cell proliferation inhibition by compounds was analyzed using Analyze 5 in-house software. […] The IC50 values are mean values calculated from at least three experiments.
For orientation: ATP-based viability assays read luminescence as a measure of living cells.

The test system of assay [2] is Ba/F3 cells expressing c-KIT Exon 11/V654A Gleevec-resistant double mutant. Nature of the assay: Cell proliferation assay (CellTiter-Glo), Ba/F3 c-KIT exon 11/V654A. The following applies: Mus musculus, BaF3, 72 h, dose range 0.6 to 10,000 nM, mean of at least three experiments, read-out: IC50 of cell proliferation inhibition, Exon 11/Gleevec-resistant Double Mutant V654A. How it is done: as §1, §2, §3

The test system of assay [3] is Ba/F3 cells expressing c-KIT Exon 11/D816G Gleevec-resistant double mutant. The assay can be described thus: Cell proliferation assay (CellTiter-Glo), Ba/F3 c-KIT exon 11/D816G. Conditions: Mus musculus, BaF3, 72 h, dose range 0.6 to 10,000 nM, mean of at least three experiments, read-out: IC50 of cell proliferation inhibition, Exon 11/Gleevec-resistant Double Mutant D816G. As for the experimental part:
as §1, §2, §3

Assay [4] has as its system Ba/F3 cells expressing c-KIT Exon 11/N822K Gleevec-resistant double mutant. The assay can be described thus: Cell proliferation assay (CellTiter-Glo), Ba/F3 c-KIT exon 11/N822K. Conditions: Mus musculus, BaF3, 72 h, dose range 0.6 to 10,000 nM, mean of at least three experiments, read-out: IC50 of cell proliferation inhibition, Exon 11/Gleevec-resistant Double Mutant N822K. As for the experimental part:
as §1, §2, §3

Assay [5] deals with Ba/F3 cells expressing c-KIT Exon 11/Y823D Gleevec-resistant double mutant. The assay can be described thus: Cell proliferation assay (CellTiter-Glo), Ba/F3 c-KIT exon 11/Y823D. The following applies: Mus musculus, BaF3, 72 h, dose range 0.6 to 10,000 nM, mean of at least three experiments, read-out: IC50 of cell proliferation inhibition, Exon 11/Gleevec-resistant Double Mutant Y823D. How it is done:
as §1, §2, §3

For assay [6], the system named is c-KIT-expressing Ba/F3 cell lines, Gleevec-resistant double mutants versus Exon 11 mutant. The assay can be described thus: Potency shift caused by c-KIT resistance mutations (summary of Table 2). The following applies: double mutants relative to Exon 11 mutant, from Table 2. As for the experimental part: as §1, §2, §3

The structures appear in SMILES notation.

Regarding `CNC(=O)c1cc(Oc2ccc(NC(=O)Nc3ccc(Cl)c(C(F)(F)F)c3)cc2)ccn1` [BAY 43-9006, N-[4-chloro-3-(trifluoromethyl)phenyl]-N′-{4-[2-carbamoyl-1-oxo-(4-pyridyloxy)]phenyl} urea], the IC50 in assay [1] was found to be 3 nM; in assay [2], 46 nM; in assay [3] it was 8 nM; in assay [4] it was 17 nM; in assay [5] it was 36 nM. Besides, the “decrease of drug potency caused by c-KIT resistance mutations” value in assay [6] is “no more than 15 fold”.
